Key:
[1] = tested on: Phakopsora pachyrhizi (F129L); test: Protective control of soybean rust on soybeans (PHAKPA P2); format: in vivo; conditions: soybean rust F129L; for % PHAKPA (F129L) Disease level P2 at 4 ppm: protective P2, 4 ppm; for % PHAKPA (F129L) Disease level P2 at 16 ppm: protective P2, 16 ppm
[2] = tested on: Phakopsora pachyrhizi (F129L); test: Protective control of soybean rust on soybeans (PHAKPA P6); format: in vivo; conditions: soybean rust F129L; for % PHAKPA (F129L) Disease level P6 at 4 ppm: protective P6, 4 ppm; for % PHAKPA (F129L) Disease level P6 at 16 ppm: protective P6, 16 ppm

## CO/N=C(/C(=O)OC)c1cccc(C)c1CO/N=C(\C)c1ccc(OC)cc1C(F)(F)F [compound 328]
[1]
  % PHAKPA (F129L) Disease level P2 at 4 ppm: 33%
  % PHAKPA (F129L) Disease level P2 at 16 ppm: 8%
[2]
  % PHAKPA (F129L) Disease level P6 at 4 ppm: 23%
  % PHAKPA (F129L) Disease level P6 at 16 ppm: 5%

## CNC(=O)/C(=N/OC)c1cccc(C)c1CO/N=C(\C)c1ccccc1OC1CC1 [compound 329]
[1]
  % PHAKPA (F129L) Disease level P2 at 4 ppm: 100%
  % PHAKPA (F129L) Disease level P2 at 16 ppm: 53%
[2]
  % PHAKPA (F129L) Disease level P6 at 4 ppm: 100%
  % PHAKPA (F129L) Disease level P6 at 16 ppm: 73%

## CO/N=C(/C(=O)OC)c1cccc(C)c1CO/N=C(\C)c1cccc(F)c1C(F)(F)F [compound 330]
[1]
  % PHAKPA (F129L) Disease level P2 at 4 ppm: 83%
  % PHAKPA (F129L) Disease level P2 at 16 ppm: 24%
[2]
  % PHAKPA (F129L) Disease level P6 at 4 ppm: 93%
  % PHAKPA (F129L) Disease level P6 at 16 ppm: 17%

## CO/N=C(/C(=O)OC)c1cccc(C)c1CO/N=C(\C)c1ccc(Oc2ccc(Cl)cc2)cc1C(F)(F)F [compound 335]
[1]
  % PHAKPA (F129L) Disease level P2 at 4 ppm: 77%
  % PHAKPA (F129L) Disease level P2 at 16 ppm: 53%
[2]
  % PHAKPA (F129L) Disease level P6 at 4 ppm: 80%
  % PHAKPA (F129L) Disease level P6 at 16 ppm: 25%

## CNC(=O)/C(=N/OC)c1cccc(C)c1CO/N=C(\C)c1ccc(Oc2ccc(Cl)cc2)cc1C(F)(F)F [compound 336]
[1]
  % PHAKPA (F129L) Disease level P2 at 4 ppm: 63%
  % PHAKPA (F129L) Disease level P2 at 16 ppm: 20%
[2]
  % PHAKPA (F129L) Disease level P6 at 4 ppm: 50%
  % PHAKPA (F129L) Disease level P6 at 16 ppm: 17%

## CNC(=O)/C(=N/OC)c1cccc(C)c1CO/N=C(\C)c1ccc(OC)cc1OC(F)(F)F [compound 337]
[1]
  % PHAKPA (F129L) Disease level P2 at 4 ppm: 9%
  % PHAKPA (F129L) Disease level P2 at 16 ppm: 0%
[2]
  % PHAKPA (F129L) Disease level P6 at 4 ppm: 13%
  % PHAKPA (F129L) Disease level P6 at 16 ppm: 1%

## CNC(=O)/C(=N/OC)c1cccc(C)c1CO/N=C(\C)c1ccc(C)cc1OC(F)(F)F [compound 340]
[1]
  % PHAKPA (F129L) Disease level P2 at 4 ppm: 23%
  % PHAKPA (F129L) Disease level P2 at 16 ppm: 4%
[2]
  % PHAKPA (F129L) Disease level P6 at 4 ppm: 42%
  % PHAKPA (F129L) Disease level P6 at 16 ppm: 7%

## CNC(=O)/C(=N/OC)c1cccc(C)c1CO/N=C(\C)c1c(F)cc(F)cc1OC(F)(F)F [compound 344]
[1]
  % PHAKPA (F129L) Disease level P2 at 4 ppm: 6%
  % PHAKPA (F129L) Disease level P2 at 16 ppm: 0%
[2]
  % PHAKPA (F129L) Disease level P6 at 4 ppm: 16%
  % PHAKPA (F129L) Disease level P6 at 16 ppm: 0%

## CNC(=O)/C(=N/OC)c1cccc(C)c1CO/N=C(\C)c1c(F)cccc1C(F)(F)F [compound 345]
[1]
  % PHAKPA (F129L) Disease level P2 at 4 ppm: 22%
  % PHAKPA (F129L) Disease level P2 at 16 ppm: 1%
[2]
  % PHAKPA (F129L) Disease level P6 at 4 ppm: 32%
  % PHAKPA (F129L) Disease level P6 at 16 ppm: 1%

## CNC(=O)/C(=N/OC)c1cccc(C)c1CO/N=C(\C)c1c(F)ccc(F)c1OC(F)(F)F [compound 346]
[1]
  % PHAKPA (F129L) Disease level P2 at 4 ppm: 4%
  % PHAKPA (F129L) Disease level P2 at 16 ppm: 0%
[2]
  % PHAKPA (F129L) Disease level P6 at 4 ppm: 5%
  % PHAKPA (F129L) Disease level P6 at 16 ppm: 0%

## CNC(=O)/C(=N/OC)c1cccc(C)c1CO/N=C(\C)c1ccc(OC(F)(F)F)cc1OC(F)(F)F [compound 349]
[1]
  % PHAKPA (F129L) Disease level P2 at 4 ppm: 97%
  % PHAKPA (F129L) Disease level P2 at 16 ppm: 50%
[2]
  % PHAKPA (F129L) Disease level P6 at 4 ppm: 97%
  % PHAKPA (F129L) Disease level P6 at 16 ppm: 35%

## CNC(=O)/C(=N/OC)c1cccc(C)c1CO/N=C(\C)c1cccc(F)c1OC(F)(F)F [compound 354]
[1]
  % PHAKPA (F129L) Disease level P2 at 4 ppm: 17%
  % PHAKPA (F129L) Disease level P2 at 16 ppm: 2%
[2]
  % PHAKPA (F129L) Disease level P6 at 4 ppm: 21%
  % PHAKPA (F129L) Disease level P6 at 16 ppm: 4%

## CNC(=O)/C(=N/OC)c1cccc(C)c1CO/N=C(\C)c1c(F)cc(Br)cc1OC(F)(F)F [compound 355]
[1]
  % PHAKPA (F129L) Disease level P2 at 4 ppm: 34%
  % PHAKPA (F129L) Disease level P2 at 16 ppm: 7%
[2]
  % PHAKPA (F129L) Disease level P6 at 4 ppm: 48%
  % PHAKPA (F129L) Disease level P6 at 16 ppm: 4%

## CNC(=O)/C(=N/OC)c1cccc(C)c1CO/N=C(\C)c1c(F)cc(F)cc1C(F)(F)F [compound 357]
[1]
  % PHAKPA (F129L) Disease level P2 at 4 ppm: 13%
  % PHAKPA (F129L) Disease level P2 at 16 ppm: 1%
[2]
  % PHAKPA (F129L) Disease level P6 at 4 ppm: 18%
  % PHAKPA (F129L) Disease level P6 at 16 ppm: 0%

## CNC(=O)/C(=N/OC)c1cccc(C)c1CO/N=C(\C)c1c(F)cc(Br)cc1C(F)(F)F [compound 358]
[1]
  % PHAKPA (F129L) Disease level P2 at 4 ppm: 77%
  % PHAKPA (F129L) Disease level P2 at 16 ppm: 17%
[2]
  % PHAKPA (F129L) Disease level P6 at 4 ppm: 83%
  % PHAKPA (F129L) Disease level P6 at 16 ppm: 18%

## CNC(=O)/C(=N/OC)c1cccc(C)c1CO/N=C(\C)c1c(F)ccc(F)c1C(F)(F)F [compound 359]
[1]
  % PHAKPA (F129L) Disease level P2 at 4 ppm: 100%
  % PHAKPA (F129L) Disease level P2 at 16 ppm: 37%
[2]
  % PHAKPA (F129L) Disease level P6 at 4 ppm: 100%
  % PHAKPA (F129L) Disease level P6 at 16 ppm: 43%

## CO/N=C(/C(=O)OC)c1cccc(C)c1CO/N=C(\C)c1c(F)cc(F)cc1C(F)(F)F [compound 360]
[1]
  % PHAKPA (F129L) Disease level P2 at 4 ppm: 53%
  % PHAKPA (F129L) Disease level P2 at 16 ppm: 9%
[2]
  % PHAKPA (F129L) Disease level P6 at 4 ppm: 80%
  % PHAKPA (F129L) Disease level P6 at 16 ppm: 5%

## CO/N=C(/C(=O)OC)c1cccc(C)c1CO/N=C(\C)c1c(F)cc(F)cc1OC(F)(F)F [compound 361]
[1]
  % PHAKPA (F129L) Disease level P2 at 4 ppm: 80%
  % PHAKPA (F129L) Disease level P2 at 16 ppm: 18%
[2]
  % PHAKPA (F129L) Disease level P6 at 4 ppm: 88%
  % PHAKPA (F129L) Disease level P6 at 16 ppm: 31%

— patent US20230172204A1 (BASF SE, priority 2020, published 2023)
